# Measurements from ChEMBL document CHEMBL4184129, “Inhibitors of nuclease and redox activity of apurinic/apyrimidinic endonuclease 1/redox effector factor 1 (APE1/Ref-1)” (Bioorg Med Chem, 2017).
# Columns and labels:
# [1] = target: T1, DNA repair nuclease/redox regulator APEX1 (Homo sapiens, UniProt P27695); assay: Inhibition of human APE1 using a 5'-TAMRA labelled THF abasic site double-stranded oligodeoxynucleotide as substrate in presence of Mg2+ by fluorescence polarization displacement assay
# [2] = target: T1, DNA repair nuclease/redox regulator APEX1; assay: Inhibition of recombinant human APE1 using a 5'-FAM/3'-Dabsyl labelled double-stranded DNA as substrate after 30 mins by fluorescence-based assay
# [3] = target: T1, DNA repair nuclease/redox regulator APEX1; assay: Inhibition of N-terminal hexa-His tagged human APE1 expressed in Escherichia coli BL21 (Rosetta) using fluorescein-dabcyl-containing oligonucleotide as substrate measured over 5 mins by high-throughput fluorescence assay
# [4] = target: T1, DNA repair nuclease/redox regulator APEX1; assay: Binding affinity to full length human APE1 expressed in Escherichia coli BL21/DE3
# [5] = target: T1, DNA repair nuclease/redox regulator APEX1; assay: Inhibition of nuclease activity of APE1 in human glioblastoma cells assessed as reduction in AP site DNA cleavage; type: cell-based
# [6] = target: T1, DNA repair nuclease/redox regulator APEX1; assay: Inhibition of human APE1 measured every 5 mins for 60 mins by FAM fluorophore based fluorescence assay
# [7] = target: T1, DNA repair nuclease/redox regulator APEX1; assay: Inhibition of His-tagged human APE1 expressed in Escherichia coli M15 assessed as reduction in cleavage of 26 mer substrate to 13 mer products pre-incubated for 30 mins before substrate addition for 15 mins using 5' end [32P] AP site containing 26 mer oligonucleotide by polyacrylamide gel electrophoresis
# [8] = target: T1, DNA repair nuclease/redox regulator APEX1; assay: Inhibition of APE1 in human HeLa cells assessed as reduction in AP site cleavage 5'-[gamma-32P]CTCGCAAGUGGGTACCGA-3' as substrate after 1 hr; type: cell-based
# [9] = target: T1, DNA repair nuclease/redox regulator APEX1; assay: Inhibition of recombinant human APE1 using 5'-F-GCCCCCXGGGGACGTACGATATCCCGCTCC-3' as substrate preincubated for 10 mins followed by substrate addition measured at 5 mins intervals for 30 mins by fluorescence-based assay
# [10] = target: T1, DNA repair nuclease/redox regulator APEX1; assay: Inhibition of APE1 in human HeLa cells; type: cell-based
# [11] = target: T1, DNA repair nuclease/redox regulator APEX1; assay: Inhibition of human APE1 assessed as reduction in abasic sites DNA cleavage using 6-FAM/TAMRA labelled 17-Tphi as substrate by fluorescence-based assay
# [12] = target: T1, DNA repair nuclease/redox regulator APEX1; assay: Inhibition of […] activity of full length N-terminal hexa-His SUMO-fused human APE1 using HEX-labeled THF oligonucleotide as substrate preincubated for 30 to 120 mins followed by substrate addition measured after 15 mins by fluorescence assay
# [13] = system: Panel NCI-60 (60 carcinoma cell lines); assay: Growth inhibition in human NCI60 cells after 72 hrs by CellTiterGlo assay; type: functional
# T1 sequence (P27695 whole entry): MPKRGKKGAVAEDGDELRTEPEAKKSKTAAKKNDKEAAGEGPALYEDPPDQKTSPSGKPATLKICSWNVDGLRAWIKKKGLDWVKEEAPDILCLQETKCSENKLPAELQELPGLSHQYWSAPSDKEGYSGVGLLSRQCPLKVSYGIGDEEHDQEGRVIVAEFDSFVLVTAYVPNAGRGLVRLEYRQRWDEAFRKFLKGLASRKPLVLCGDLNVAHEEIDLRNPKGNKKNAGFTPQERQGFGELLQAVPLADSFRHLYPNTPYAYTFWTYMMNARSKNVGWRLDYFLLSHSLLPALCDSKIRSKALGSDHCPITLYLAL
structure (smiles),measurement,setting,value
CCOC(=O)c1cc(-c2ccc(/C=C3/C(=O)N(c4ccc(C(=O)O)cc4)N=C3C)o2)ccc1Cl,IC50,[1],6800 nM
O=C(O)CC[C@H]1N[C@@]2(C(=O)Nc3c(Cl)cccc32)[C@H]2C(=O)N(Cc3ccc4c(c3)OCO4)C(=O)[C@@H]12,IC50,[2],1.8 µM
O=C(Nc1cccc(Cl)c1)c1noc2c1CCC2,IC50,[3],1600 nM
Cc1coc2c1C(=O)C(=O)c1c-2ccc2c1CCCC2(C)C [TANSHINONE IIA],Kd,[4],0.88 nM
O=c1oc(-c2ccc(Cl)cc2Cl)nc2ccc([N+](=O)[O-])cc12,IC50,[5],2000 nM
O=[N+]([O-])c1cccc(S(=O)(=O)[N-]c2nc3ccccc3nc2-[n+]2ccc(Cc3ccccc3)cc2)c1,IC50,[2],6.8 µM
Nc1c(S(N)(=O)=O)cc(S(N)(=O)=O)cc1S(N)(=O)=O,IC50,[6],1400 nM
COc1c(C(=O)O)cccc1C(=O)NCc1ccc(Cl)c(Cl)c1,IC50,[7],18 µM
O=S(=O)(Oc1ccc(-c2ccc(OS(=O)(=O)c3ccc(Cl)c(Cl)c3)cc2)cc1)c1ccc(Cl)c(Cl)c1,IC50,[5],1800 nM
COc1ccc(CNC(=O)c2cccc(C(=O)O)c2OC)cc1OC,IC50,[7],18 µM
O=C(O)c1cc2cccc([N+](=O)[O-])c2[nH]1,IC50,[8],3.06 µM
C=C1S/C(=N\c2ccccc2Cl)N(C(=O)c2sc3ccccc3c2Cl)C12CCCCC2,IC50,[5],1400 nM
COc1c(C(=O)O)cccc1C(=O)NCc1cccc(Cl)c1,IC50,[7],16 µM
Brc1cc(-c2cc(Br)c(Br)c(Br)c2)cc(Br)c1Br,IC50,[5],200 nM
O=C(c1cc2ccccc2o1)[C@@H](O)c1nc2ccccc2s1,IC50,[9],2000 nM
CC1=C/C(=C(/c2ccc(O)c(C)c2)c2ccccc2C(=O)O)C=CC1=O,IC50,[6],1700 nM
O=C1NC(=O)N(Cc2ccco2)C(=O)/C1=C/C=C/c1ccco1,IC50,[1],2800 nM
O=C(CSc1ncn[nH]1)Nc1cccc2c1C(=O)c1ccccc1C2=O,IC50,[10],4 µM
COc1cccc(CNC(=O)c2cccc(C(=O)O)c2OC)c1,IC50,[7],19 µM
c1cc2ccc3cc2cc1CNCCOCCNCc1ccc2ccc(cc2c1)CNCCOCCNC3,IC50,[11],55 nM
CCCCCCCCC/C(=C\C1=C(C)C(=O)C(OC)=C(OC)C1=O)C(=O)NOC,IC50,[12],8.5 µM
CC(C)(C)c1ccc(S(=O)(=O)Oc2ccc(-c3ccc(Oc4c(Cl)cccc4[N+](=O)[O-])cc3)cc2)cc1,IC50,[5],1700 nM
Cc1ccc(C)n1-c1ccc(OCC(=O)O)cc1,IC50,[3],1700 nM
Cc1sc(-c2ccc(Cl)cc2)nc1-c1ccc(-c2ccccc2F)cc1,IC50,[5],1300 nM
O=C(OCC(=O)N1NC(c2ccc3ccccc3c2)=C[C@@H]1c1ccccc1)c1ccc([N+](=O)[O-])s1,IC50,[9],3000 nM
Cc1cc(C)c2c(N)c3cccc(C)c3nc2n1,IC50,[3],2100 nM
O=c1oc(-c2ccccc2F)nc2cc(Cl)ccc12,IC50,[5],1600 nM
CCn1c2ccccc2c2cc(/C=N/Nc3cc(C)nc4cc5c(cc34)OCO5)ccc21,GI50,[13],4.2 µM
Cc1sc(Nc2cc(Cl)cc(Cl)c2)nc1-c1ccc(-c2ccccc2F)cc1,IC50,[5],900 nM
COc1cc2c(ccc3cc(OC)c(OC)c(O)c32)cc1O,IC50,[1],400 nM
CC(C)(C)c1ccc(OC(=O)c2sc3ccccc3c2Cl)c(C(C)(C)C)c1,IC50,[5],800 nM
c1cc2ccc3cc2cc1CNCCNCCNCc1ccc2ccc(cc2c1)CNCCNCCNC3,IC50,[11],57 nM
